Test results: ChEMBL document CHEMBL5584343, “Cerastecin Inhibition of the Lipooligosaccharide Transporter MsbA to Combat Acinetobacter baumannii: From Screening Impurity to In Vivo Efficacy” (J Med Chem, 2024)
pEC50: −log10 of the molar value. Converted amounts (≈) assume the structure as drawn.

Key:
Acinetobacter baumannii [1] = assay: Antibacterial activity against Acinetobacter baumannii ATCC19606 incubated for 18 to 20 hrs in presence of 1% of human serum by microbroth dilution method; type: functional; conditions: time 18-20 hrs
Acinetobacter baumannii [2] = assay: Selectivity ratio of MIC95 for antibacterial activity against Acinetobacter baumannii ATCC19606 in the presence of 1% human serum to MIC95 for antibacterial activity against Acinetobacter baumannii ATCC19606; type: functional
Acinetobacter baumannii [3] = assay: Antibacterial activity against Acinetobacter baumannii ATCC19606 assessed as bacterial growth inhibition incubated for 18 to 20 hrs by microbroth dilution method; type: functional; conditions: time 18-20 hrs
[4] = Inhibition of wildtype Acinetobacter baumannii MsbA preincubated for 30 mins followed by ATP addition and measured after 1 hrs by Transcreener ADP2 F1 assay

Compound	MIC95 (Acinetobacter baumannii [1]) [µM]	Selectivity ratio (Acinetobacter baumannii [2])	MIC95 (Acinetobacter baumannii [3]) [µM]	pEC50 [4]
CCCCc1ccc(S(=O)(=O)Nc2ccc(NC(=O)CCC(=O)Nc3ccc(NS(=O)(=O)c4ccc(CCCC)cn4)c(C(=O)O)c3)cc2C(=O)O)nc1	200	8	25 (≈ 19.5 µg/mL)	5.75
CCCCc1ccc(S(=O)(=O)Nc2ccc(CNCCC(=O)Nc3ccc(NS(=O)(=O)c4ccc(CCCC)cc4)c(C(=O)O)c3)cc2C(=O)O)cc1	1.56	5.6	0.277 (≈ 0.212 µg/mL)	6.51
CCCCc1ccc(S(=O)(=O)Nc2ccc(NC(=O)CCC(=O)Nc3ccc(NS(=O)(=O)c4ccc(CCCC)nc4)c(C(=O)O)c3)cc2C(=O)O)cn1	25	11	2.21 (≈ 1.73 µg/mL)	7.09
CCCCc1ccc(S(=O)(=O)Nc2ccc(NC(=O)CCC(=O)Nc3ccc(NS(=O)(=O)c4ccc(CCCC)cc4)c(C(=O)NC)c3)cc2C(=O)O)cc1	> 200		> 200	6.12
CCCCc1ccc(S(=O)(=O)Nc2ccc(NC(=O)CCC(=O)Nc3ccc(NS(=O)(=O)c4ccc(CCCC)cc4)c(-c4nn[nH]n4)c3)cc2C(=O)O)cc1	25	45	0.553 (≈ 0.444 µg/mL)	6.54
CCCCc1ccc(S(=O)(=O)Nc2ccc(NC(=O)CCC(=O)Nc3ccc(NS(=O)(=O)c4ccc(N5CCOCC5)nc4)c(C(=O)O)c3)cc2C(=O)O)cc1	25	16	1.56 (≈ 1.26 µg/mL)	6.73
CCCCc1ccc(S(=O)(=O)Nc2ccc(C(=O)NCCNC(=O)c3ccc(NS(=O)(=O)c4ccc(CCCC)cc4)c(C(=O)O)c3)cc2C(=O)O)cc1	> 200		> 200	< 3.70
O=C(CCC(=O)Nc1ccc(NS(=O)(=O)c2ccc(Oc3ccccc3)nc2)c(C(=O)O)c1)Nc1ccc(NS(=O)(=O)c2ccc(Oc3ccccc3)nc2)c(C(=O)O)c1	6.25	32	0.196 (≈ 0.167 µg/mL)	6.87
CCCCc1ccc(S(=O)(=O)Nc2ccc(NCCCCNc3ccc(NS(=O)(=O)c4ccc(CCCC)cc4)c(C(=O)O)c3)cc2C(=O)O)cc1	12.5	16	0.783 (≈ 0.588 µg/mL)	6.21
CCCCc1ccc(S(=O)(=O)Nc2ccc(NC(=O)CCC(=O)Nc3cccc(C(=O)O)c3)cc2C(=O)O)cc1	> 200		> 200	4.49
CCCCc1ccc(S(=O)(=O)N(C)c2ccc(NC(=O)CCC(=O)Nc3ccc(N(C)S(=O)(=O)c4ccc(CCCC)cc4)c(C(=O)O)c3)cc2C(=O)O)cc1	> 200		> 200	< 3.70
CCCCc1ccc(S(=O)(=O)Nc2ccc(NC(=O)CCC(=O)Nc3ccc(NS(=O)(=O)c4ccc(CCCC)cc4)c(C(=O)O)c3)cc2F)cc1	> 200		> 200	5.93
CCCCc1ccc(S(=O)(=O)Nc2ccc(N(C)C(=O)CCC(=O)N(C)c3ccc(NS(=O)(=O)c4ccc(CCCC)cc4)c(C(=O)O)c3)cc2C(=O)O)cc1	> 200		> 200	< 3.70
CCCCc1ccc(C(=O)Nc2ccc(NC(=O)CCC(=O)Nc3ccc(NS(=O)(=O)c4ccc(CCCC)cc4)c(C(=O)O)c3)cc2C(=O)O)cc1	> 200		> 200	< 3.70
CCCCc1ccc(S(=O)(=O)Nc2ccc(NC(=O)CCC(=O)Nc3ccc(NS(=O)(=O)c4ccc(CCCC)cc4)c(C(=O)O)c3)cc2C#N)cc1	> 200		> 200	5.80
CCCCc1ccc(S(=O)(=O)Nc2ccc(NC(=O)CCC(=O)Nc3ccc(NS(=O)(=O)c4ccc(CCCC)cc4)c(C(=O)OCC)c3)cc2C(=O)OCC)cc1	> 200		> 200	< 3.70
CCCCc1ccc(S(=O)(=O)Nc2ccc(NC(=O)CCC(=O)Nc3ccc(N)c(C(=O)O)c3)cc2C(=O)O)cc1	> 200		> 200	< 4.18
CCCCc1ccc(S(=O)(=O)Nc2ccc(NC(=O)CCC(=O)Nc3ccc(NS(=O)(=O)c4ccc(CCCC)cc4)c(C(N)=O)c3)cc2C(N)=O)cc1	> 200		> 200	6.29
